Measured values reported in US5807535A, “Metal complexes of hydroxyaryl containing aminocarboxylic acid chelating agents” (Australian Nuclear Science & Technology Organisation, priority 1992, dated 1998).
One block for each compound: values may come before it.

What was measured:
[1] = Serum stability of 99mTc complex of (1); format: in vitro ADME; conditions: first hour at 37° C., read-out: technetium lost from the chelator in serum
Protocol: A typical method of radiolabelling of the chelator was achieved by dissolving the chelator in a basic solution of saline. The pH was then adjusted to approx. 6 with HCl. Excess stannous chloride was added to the resultant solution followed by one equivalent volume of sodium ^99m TcO4 (10-50 mCi/ml). Final concentration of the chelator was approx. 1 mg/ml. The efficacy of labelling was determined by ITLC-SG. For each product only one main radiochemical species was observed. Each complex was diluted to 15 μCi/100 μl with saline. […] (See FIGS. 1A and 1B).

[2] = Radiolabelling of chelators with 64Cu and 67Cu; format: physicochemical; conditions: ligand:metal ratio 4:1, ITLC
Protocol: (§1) A typical procedure involved the dissolving Cu-67 20 μl of original stock in an acetate buffer (0.2 M; pH 4.5) to a total volume of 500 μl. To this solution was added 500 μl of the ligand (20 mg/ml) solution in acetate buffer. The mixture was then left to react at 37° C. for 20 minutes. ITLC confirmed the labelling was greater than >95%.

[3] = Serum stability of Copper-67 complexes; format: in vitro ADME
Protocol: The serum stability was determined for selected derivatives and typical procedure is as follows.
The ligand (1) was labelled with Cu-67 at a ligand:metal ratio of 4:1.

[4] = Complexation of (1) with 166Dy and 166Ho; format: physicochemical; conditions: 166Dy/166Ho, within 40 mins at RT
Protocol: Radiolabelling with of (1) with ^166 Dy and ^166 Ho and the serum stability of the complex formed has been investigated. A typical procedure involves dissolving (1) (2.6 10^-4 M) in 1.0 M NaOH (150 μl) and then adding saline (669 μl). Then equal volume of ligand mixture and the ^166 Dy/^166 Ho in 0.2 M NaAc (pH to 4.5) are mixed. The complexation is monitored by ITLC-SG.

[5] = Serum stability of 166Dy/166Ho complex of (1); format: in vitro ADME; conditions: human serum, 37° C.
Protocol: The radiolabelling (1) is then incubated in human serum at 37° C. At various time intervals the aliquots are separated and monitored for UV absorbance and radioactivity. The data illustrated in FIG. 31 show the complex is stable for >46 hrs.

[6] = Biodistribution of Copper-67 complex of (5); format: in vivo, Balb/c mice; conditions: for biodistribution L. Int. / biodistribution S. Int. / biodistribution blood / biodistribution bone / biodistribution brain / biodistribution heart / biodistribution kidney / biodistribution liver / biodistribution lung / biodistribution muscle / biodistribution pancreas / biodistribution skin / biodistribution spleen / biodistribution stomach / biodistribution tail / biodistribution urine: 67Cu, mice
Protocol: as §1
The biodistribution of the copper-67 complex of ligand (5) was evaluated in balb/c mice (5 animals per time point) at 1, 3, 5, 10, 30 minute time intervals.

[7] = Effect of pH on radiolabelling ligand (5) with 64/67Cu; format: physicochemical
Protocol: Radiolabelling with ^64/67 Cu was investigated with ligand (5) over a range of pHs (see Table B). Conditions employed are similar to that reported above for where the ^64/67 Cu in appropriate buffer was added directly to a buffered solution of ligand (5). Rate and percent of complexation was monitored over time by ITLC-SG. Mobile phase employed was methanol:water:ammonia (9:1: trace amounts). The copper complex moves with the solvent front while the free copper is retained at the origin.

[8] = Cu-67, over the 30 minute period

degraded at 1 h [1]: ≤ 15%
efficiency of labelling with Cu-67 [2]: > 95%
further loss in serum ([3]; Cu-67, after 24 hours): no further loss
degraded at 4 h ([3]; serum, Cu-67, initial 4 hours, read-out: loss in serum): 4%
complexation [4]: > 99%
serum stability (complex is stable for) [5]: > 46 h
Structure (SMILES): O=C(O)CN(CCN(CC(=O)O)CC(=O)Nc1ccccc1O)CC(=O)Nc1ccccc1O [Compound 1]

biodistribution L. Int. ([6]; 1 min): 0.35 % Injected dose
biodistribution S. Int. ([6]; 1 min): 0.50 % Injected dose
biodistribution blood ([6]; 1 min): 5.86 % Injected dose
biodistribution bone ([6]; 1 min): 5.46 % Injected dose
biodistribution brain ([6]; 1 min): 0.23 % Injected dose
biodistribution heart ([6]; 1 min): 0.27 % Injected dose
biodistribution kidney ([6]; 1 min): 8.35 % Injected dose
biodistribution liver ([6]; 1 min): 5.71 % Injected dose
biodistribution lung ([6]; 1 min): 0.85 % Injected dose
biodistribution muscle ([6]; 1 min): 13.69 % Injected dose
biodistribution pancreas ([6]; 1 min): 0.20 % Injected dose
biodistribution skin ([6]; 1 min): 9.61 % Injected dose
biodistribution spleen ([6]; 1 min): 0.18 % Injected dose
biodistribution stomach ([6]; 1 min): 0.52 % Injected dose
biodistribution tail ([6]; 1 min): 8.27 % Injected dose
biodistribution urine ([6]; 1 min): 0.35 % Injected dose
biodistribution L. Int. ([6]; 3 min): 0.75 % Injected dose
biodistribution S. Int. ([6]; 3 min): 1.10 % Injected dose
biodistribution blood ([6]; 3 min): 4.76 % Injected dose
biodistribution bone ([6]; 3 min): 3.35 % Injected dose
biodistribution brain ([6]; 3 min): 0.22 % Injected dose
biodistribution heart ([6]; 3 min): 0.28 % Injected dose
biodistribution kidney ([6]; 3 min): 5.65 % Injected dose
biodistribution liver ([6]; 3 min): 8.48 % Injected dose
biodistribution lung ([6]; 3 min): 1.20 % Injected dose
biodistribution muscle ([6]; 3 min): 18.00 % Injected dose
biodistribution pancreas ([6]; 3 min): 0.11 % Injected dose
biodistribution skin ([6]; 3 min): 19.21 % Injected dose
biodistribution spleen ([6]; 3 min): 0.19 % Injected dose
biodistribution stomach ([6]; 3 min): 0.93 % Injected dose
biodistribution tail ([6]; 3 min): 5.19 % Injected dose
biodistribution urine ([6]; 3 min): 1.98 % Injected dose
biodistribution L. Int. ([6]; 5 min): 0.54 % Injected dose
biodistribution S. Int. ([6]; 5 min): 1.08 % Injected dose
biodistribution blood ([6]; 5 min): 4.05 % Injected dose
biodistribution bone ([6]; 5 min): 2.74 % Injected dose
biodistribution brain ([6]; 5 min): 0.23 % Injected dose
biodistribution heart ([6]; 5 min): 0.19 % Injected dose
biodistribution kidney ([6]; 5 min): 4.99 % Injected dose
biodistribution liver ([6]; 5 min): 9.04 % Injected dose
biodistribution lung ([6]; 5 min): 1.10 % Injected dose
biodistribution muscle ([6]; 5 min): 11.95 % Injected dose
biodistribution pancreas ([6]; 5 min): 0.12 % Injected dose
biodistribution skin ([6]; 5 min): 16.23 % Injected dose
biodistribution spleen ([6]; 5 min): 0.16 % Injected dose
biodistribution stomach ([6]; 5 min): 0.87 % Injected dose
biodistribution tail ([6]; 5 min): 5.36 % Injected dose
biodistribution urine ([6]; 5 min): 3.72 % Injected dose
biodistribution L. Int. ([6]; 10 min): 0.79 % Injected dose
biodistribution S. Int. ([6]; 10 min): 0.90 % Injected dose
biodistribution blood ([6]; 10 min): 2.33 % Injected dose
biodistribution brain ([6]; 10 min): 0.19 % Injected dose
biodistribution heart ([6]; 10 min): 0.18 % Injected dose
biodistribution kidney ([6]; 10 min): 4.48 % Injected dose
biodistribution liver ([6]; 10 min): 11.79 % Injected dose
biodistribution lung ([6]; 10 min): 1.20 % Injected dose
biodistribution muscle ([6]; 10 min): 8.38 % Injected dose
biodistribution pancreas ([6]; 10 min): 0.34 % Injected dose
biodistribution skin ([6]; 10 min): 16.46 % Injected dose
biodistribution spleen ([6]; 10 min): 0.16 % Injected dose
biodistribution stomach ([6]; 10 min): 0.80 % Injected dose
biodistribution tail ([6]; 10 min): 3.45 % Injected dose
biodistribution urine ([6]; 10 min): 4.71 % Injected dose
biodistribution L. Int. ([6]; 30 min): 0.31 % Injected dose
biodistribution S. Int. ([6]; 30 min): 0.71 % Injected dose
biodistribution blood ([6]; 30 min): 2.12 % Injected dose
biodistribution bone ([6]; 30 min): 2.05 % Injected dose
biodistribution brain ([6]; 30 min): 0.54 % Injected dose
biodistribution heart ([6]; 30 min): 0.20 % Injected dose
biodistribution kidney ([6]; 30 min): 3.38 % Injected dose
biodistribution liver ([6]; 30 min): 17.10 % Injected dose
biodistribution lung ([6]; 30 min): 1.29 % Injected dose
biodistribution muscle ([6]; 30 min): 7.45 % Injected dose
biodistribution pancreas ([6]; 30 min): 0.34 % Injected dose
biodistribution skin ([6]; 30 min): 14.14 % Injected dose
biodistribution spleen ([6]; 30 min): 0.19 % Injected dose
biodistribution stomach ([6]; 30 min): 1.22 % Injected dose
biodistribution tail ([6]; 30 min): 1.51 % Injected dose
biodistribution urine ([6]; 30 min): 1.33 % Injected dose
rate of complexation ([7]; all pHs (pH 3.0-10.0)): complete within the first minute
complexation maintained for upto ([7]; pH 3.0-10.0): ≤ 2 h
Structure (SMILES): Nc1ccc(O)c(NC(=O)CN(CCN(CC(=O)O)CC(=O)Nc2cc(N)ccc2O)CC(=O)O)c1 [Compound 5]
clearance from the kidneys, blood and urine [6, 8]: clears from the kidneys, blood and urine over the 30 minute period
uptake in the liver [6, 8]: active uptake of the complex in the liver
